This is an account of results in patent US20230265151A1, “GIP/GLP1 CO-AGONIST COMPOUNDS” (priority 2020, published 2023).

For assay [1], the target named is T1, human GLP-1 receptor (hGLP-1R) (Homo sapiens, UniProt P43220).
T1 construct: expressed in transfected cells; crude membranes
The assay is described as follows: [125I]-GLP-1 binding, SPA with membranes of HEK293 cells expressing hGLP-1R. The conditions noted are these: for Ki: human GLP-1R, geometric mean (SEM, n), read-out: Binding Affinity Ki, nM (SEM, n) hGLP-1R.

The target of assay [2] is hGLP-1R (Homo sapiens, UniProt P43220). The assay is described as follows: Functional cAMP formation (HTRF) in HEK-293 clonal cells expressing hGLP-1R, 0.1% bovine casein, without or with 1.0% human serum albumin. It is filed as cell-based. Further details: expressed in transfected cells. To be noted: for Emax: percent of maximal response to GLP-1(7-36)NH2; for EC50: cAMP, 0.1% bovine casein (no human serum albumin), geometric mean. The method, boiled down: (§1)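 Cells were stimulated with peptide for 30 min at 37° C, then intracellular cAMP was measured by competitive HTRF (665/620 nm ratio) and converted to nM using a cAMP standard curve. Relative EC50 and Emax came from four-parameter logistic fits of percent maximal response against peptide concentration.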

Assay [3] has as its target T2, hGIPR (Homo sapiens, UniProt P48546).
T2 construct: expressed in transfected cells
T2 sequence (P48546 22-466): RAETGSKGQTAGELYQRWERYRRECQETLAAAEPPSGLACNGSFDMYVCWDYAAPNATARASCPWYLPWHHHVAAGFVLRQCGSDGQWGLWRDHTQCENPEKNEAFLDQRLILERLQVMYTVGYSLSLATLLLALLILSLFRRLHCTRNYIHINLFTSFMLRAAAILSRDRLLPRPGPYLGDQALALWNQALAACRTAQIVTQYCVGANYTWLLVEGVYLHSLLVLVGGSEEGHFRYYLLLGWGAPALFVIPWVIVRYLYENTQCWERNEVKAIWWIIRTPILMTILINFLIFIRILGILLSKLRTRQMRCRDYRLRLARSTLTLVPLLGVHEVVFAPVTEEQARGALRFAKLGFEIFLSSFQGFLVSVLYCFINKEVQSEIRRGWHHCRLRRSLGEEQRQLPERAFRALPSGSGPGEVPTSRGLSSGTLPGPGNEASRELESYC
As to the kind of experiment: Functional cAMP formation (HTRF) in HEK-293 clonal cells expressing hGIPR, 0.1% bovine casein, without or with 1.0% human serum albumin. Format: cell-based. The conditions noted are these: for Emax: percent of maximal response to GIP(1-42)NH2; for EC50: cAMP. Summed up:
as §1

The target of assay [4] is T3, human GIP receptor (hGIPR) (Homo sapiens, UniProt P48546).
T3 construct: expressed in transfected cells; crude membranes
T3 sequence (P48546 22-466): T2 sequence (P48546 22-466)
The assay is described as follows: [125I]-GIP binding, SPA with membranes of CHO cells expressing hGIPR. The conditions noted are these: for Ki: human GIPR, geometric mean (SEM, n), read-out: Binding Affinity Ki, nM (SEM, n) hGIPR.

The target in assay [5] is T4, hGCGR (Homo sapiens, UniProt P47871).
T4 construct: expressed in transfected cells
The assay is described as follows: Functional cAMP formation (HTRF) in HEK-293 clonal cells expressing hGCGR, 0.1% bovine casein, without or with 1.0% human serum albumin. It is filed as cell-based. To be noted: 37° C. Summed up:
as §1

Where [6] appears, read: HEK293, cAMP, 37° C., 0.1% bovine casein, arithmetic mean, read-out: hGLP-1R Emax, % ± SEM.
The mark [7] stands for this setting: 37° C., read-out: hGLP-1R EC50, nM (SEM, n).
Setting [8] is: HEK293, cAMP, 37° C., 0.1% bovine casein and 1.0% human serum albumin, read-out: hGIPR Emax, % ± SEM.
Setting [9] is: 37° C., 0.1% bovine casein (no human serum albumin), geometric mean, read-out: hGIPR EC50, nM (SEM, n).
The mark [10] stands for this setting: cAMP, 0.1% bovine casein (no human serum albumin), geometric mean, read-out: hGCGR EC50, nM (SEM, n).
Setting [11] is: cAMP, 0.1% bovine casein and 1.0% human serum albumin, geometric mean (SEM, n), read-out: hGCGR EC50, nM (SEM, n).

Structures are written as SMILES. pKi: −log10 of the molar value. Like-named read-outs stand apart in the source and are kept apart here. A value given as a limit tells only on which side of the number the result lay.

Sequence of hGLP-1R (P43220 24-463): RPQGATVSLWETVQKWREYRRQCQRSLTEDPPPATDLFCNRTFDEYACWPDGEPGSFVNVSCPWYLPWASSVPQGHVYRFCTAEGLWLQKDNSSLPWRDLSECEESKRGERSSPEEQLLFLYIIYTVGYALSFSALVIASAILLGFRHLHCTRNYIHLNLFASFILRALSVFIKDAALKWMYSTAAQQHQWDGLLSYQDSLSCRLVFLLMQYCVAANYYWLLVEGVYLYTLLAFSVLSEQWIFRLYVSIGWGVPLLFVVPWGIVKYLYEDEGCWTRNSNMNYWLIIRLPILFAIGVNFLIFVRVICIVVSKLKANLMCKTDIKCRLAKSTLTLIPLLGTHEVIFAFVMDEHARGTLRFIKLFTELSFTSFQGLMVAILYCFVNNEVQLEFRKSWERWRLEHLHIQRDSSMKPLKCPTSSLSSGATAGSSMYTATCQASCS
T1 sequence (P43220 24-463): as above
T4 sequence (P47871 26-477): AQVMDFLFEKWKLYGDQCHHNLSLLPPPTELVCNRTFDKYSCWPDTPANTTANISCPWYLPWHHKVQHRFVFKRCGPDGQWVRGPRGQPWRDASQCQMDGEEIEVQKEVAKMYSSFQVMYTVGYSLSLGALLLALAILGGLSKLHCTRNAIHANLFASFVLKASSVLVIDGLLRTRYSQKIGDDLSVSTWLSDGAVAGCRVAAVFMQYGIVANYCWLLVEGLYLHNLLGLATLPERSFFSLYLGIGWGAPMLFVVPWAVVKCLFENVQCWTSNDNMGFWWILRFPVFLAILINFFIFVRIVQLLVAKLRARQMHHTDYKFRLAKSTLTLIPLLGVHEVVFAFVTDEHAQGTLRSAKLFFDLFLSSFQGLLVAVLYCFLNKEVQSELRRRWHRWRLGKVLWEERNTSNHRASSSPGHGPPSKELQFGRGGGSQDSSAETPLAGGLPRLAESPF

Take `CCCCCCCCCCCC(=O)N[C@@H](CCC(=O)NCCOCCOCC(=O)NCCOCCOCC(=O)NCCOCCOCC(=O)NCCCC[C@H](NC(=O)[C@H](CCCN)NC(=O)[C@H](CC(=O)O)NC(=O)[C@H](CC(C)C)NC(=O)[C@](C)(CC(C)C)NC(=O)[C@@H](NC(=O)C(C)(C)NC(=O)[C@H](Cc1ccncc1)NC(=O)[C@H](CC(=O)O)NC(=O)[C@H](CO)NC(=O)[C@@H](NC(=O)[C@](C)(Cc1ccccc1F)NC(=O)[C@@H](NC(=O)CNC(=O)[C@H](CCC(=O)O)NC(=O)C(C)(C)NC(=O)[C@@H](N)Cc1ccc(O)cc1)[C@@H](C)O)[C@@H](C)O)[C@@H](C)CC)C(=O)N[C@@H](C)C(=O)N[C@@H](CCC(N)=O)C(=O)NC(C)(C)C(=O)N[C@@H](CCC(=O)O)C(=O)N[C@@H](Cc1ccccc1)C(=O)N[C@H](C(=O)N[C@H](CCC(=O)O)C(=O)N[C@@](C)(Cc1ccc(O)cc1)C(=O)N[C@@H](CC(C)C)C(=O)N[C@H](C(=O)N[C@@H](CCCCNC(=O)COCCOCCNC(=O)COCCOCCNC(=O)COCCOCCNC(=O)CC[C@H](NC(=O)CCCCCCCCCCC)C(=O)O)C(=O)NCC(=O)NCC(=O)N1CCC[C@H]1C(=O)N[C@@H](CO)C(=O)N[C@@H](CO)C(=O)NCC(=O)N[C@@H](C)C(=O)N1CCC[C@H]1C(=O)N1CCC[C@H]1C(=O)N1CCC[C@H]1C(=O)N[C@@H](CO)C(N)=O)[C@@H](C)CC)[C@@H](C)CC)C(=O)O` [Example 423]: the results for the Ki in assay [1] and in assay [4] were 0.275 nM and 0.0207 nM, respectively. Moreover, the Emax in assay [2] (setting [6]) is 105%; in assay [3] (setting [8]) it was 89.7%. The EC50 is 0.0721 nM in assay [2] (setting [7]), 0.00658 nM in assay [3] (setting [9]), > 9950 nM in assay [5] (setting [10]) and > 9950 nM in assay [5] (setting [11]).

Turning to `CCCCCCCCCCCC(=O)N[C@@H](CCC(=O)NCCOCCOCC(=O)NCCOCCOCC(=O)NCCCC[C@H](NC(=O)[C@H](CCCN)NC(=O)[C@H](CC(=O)O)NC(=O)[C@H](CC(C)C)NC(=O)[C@](C)(CC(C)C)NC(=O)[C@@H](NC(=O)[C@H](CO)NC(=O)[C@H](Cc1ccncc1)NC(=O)[C@H](CC(=O)O)NC(=O)[C@H](CO)NC(=O)[C@@H](NC(=O)[C@](C)(Cc1ccccc1F)NC(=O)[C@@H](NC(=O)CNC(=O)[C@H](CCC(=O)O)NC(=O)C(C)(C)NC(=O)[C@@H](N)Cc1ccc(O)cc1)[C@@H](C)O)[C@@H](C)O)[C@@H](C)CC)C(=O)N[C@@H](C)C(=O)N[C@@H](CCC(N)=O)C(=O)NC(C)(C)C(=O)N[C@@H](CCCCNC(=O)COCCOCCNC(=O)COCCOCCNC(=O)CC[C@H](NC(=O)CCCCCCCCCCC)C(=O)O)C(=O)N[C@@H](Cc1ccccc1)C(=O)N[C@H](C(=O)N[C@H](CCC(=O)O)C(=O)N[C@@](C)(Cc1ccc(O)cc1)C(=O)N[C@@H](CC(C)C)C(=O)N[C@H](C(=O)N[C@@H](CCCN)C(=O)NCC(=O)NCC(=O)N1CCC[C@H]1C(=O)N[C@@H](CO)C(=O)N[C@@H](CO)C(=O)NCC(=O)N[C@@H](C)C(=O)N1CCC[C@H]1C(=O)N1CCC[C@H]1C(=O)N1CCC[C@H]1C(=O)N[C@@H](CO)C(N)=O)[C@@H](C)CC)[C@@H](C)CC)C(=O)O` [Example 298], the Ki in assay [1] was 0.119 nM; in assay [4], 0.0131 nM. The EC50 is 0.19 nM in assay [2] (setting [7]); 0.0107 nM in assay [3] (setting [9]); > 9950 nM in assay [5] (0.1% bovine casein and 1.0% human serum albumin, geometric mean, read-out: hGCGR EC50, nM (SEM, n)); > 9950 nM in assay [5] (setting [10]). Also, the Emax turned out to be 95% in assay [3] (HEK293, 0.1% bovine casein and 1.0% human serum albumin, 37° C., read-out: hGIPR Emax, % ± SEM); 97.4% in assay [3] (HEK293, cAMP, 37° C., 0.1% bovine casein, arithmetic mean, read-out: hGIPR Emax, % ± SEM).

With `CC[C@H](C)[C@H](NC(=O)[C@H](CC(C)C)NC(=O)[C@](C)(Cc1ccc(O)cc1)NC(=O)[C@H](CCCCNC(=O)COCCOCCNC(=O)COCCOCCNC(=O)COCCOCCNC(=O)CC[C@H](NC(=O)CCCCCCCCCOc1ccc(C(=O)O)cc1)C(=O)O)NC(=O)[C@@H](NC(=O)[C@H](Cc1ccccc1)NC(=O)[C@H](CCCN)NC(=O)C(C)(C)NC(=O)[C@H](CCC(N)=O)NC(=O)[C@H](C)NC(=O)[C@H](CCC(N)=O)NC(=O)[C@H](CCCN)NC(=O)[C@H](CC(=O)O)NC(=O)[C@H](CC(C)C)NC(=O)[C@](C)(CC(C)C)NC(=O)[C@@H](NC(=O)C(C)(C)NC(=O)[C@H](Cc1ccncc1)NC(=O)[C@H](CC(=O)O)NC(=O)[C@H](CO)NC(=O)[C@@H](NC(=O)[C@](C)(Cc1ccccc1F)NC(=O)[C@@H](NC(=O)CNC(=O)[C@H](CCC(=O)O)NC(=O)C(C)(C)NC(=O)[C@@H](N)Cc1ccc(O)cc1)[C@@H](C)O)[C@@H](C)O)[C@@H](C)CC)[C@@H](C)CC)C(=O)N[C@@H](CCCCNC(=O)COCCOCCNC(=O)COCCOCCNC(=O)COCCOCCNC(=O)CC[C@H](NC(=O)CCCCCCCCCOc1ccc(C(=O)O)cc1)C(=O)O)C(=O)NCC(=O)NCC(=O)N1CCC[C@H]1C(=O)N[C@@H](CO)C(=O)N[C@@H](CO)C(=O)NCC(=O)N[C@@H](C)C(=O)N1CCC[C@H]1C(=O)N1CCC[C@H]1C(=O)N1CCC[C@H]1C(=O)N[C@@H](CO)C(N)=O` [Example 477], the pKi in assay [1] was 9.84; in assay [4], 10.55. For the same molecule, the Emax in assay [2] (HEK293, read-out: hGLP-1R Emax, % ± SEM, cAMP, 37° C., 0.1% bovine casein and 1.0% human serum albumin) was determined as 110%; in assay [2] (HEK293, read-out: hGLP-1R Emax, % ± SEM, cAMP, 37° C., 0.1% bovine casein, arithmetic mean), 110%; in assay [3] (HEK293, read-out: hGIPR Emax, % ± SEM, cAMP, 37° C., 0.1% bovine casein and 1.0% human serum albumin) it was 88.1%. Besides, the EC50 in assay [2] (hGLP-1R EC50, nM (SEM, n), 37° C.) was 0.143 nM; in assay [3] (hGIPR EC50, nM (SEM, n), 37° C., 0.1% bovine casein (no human serum albumin), geometric mean), 0.00861 nM; in assay [3] (hGIPR EC50, nM (SEM, n), 37° C., 0.1% bovine casein and 1.0% human serum albumin, geometric mean (SEM, n)), 0.163 nM; in assay [5] (hGCGR EC50, nM (SEM, n), cAMP, 0.1% bovine casein (no human serum albumin), geometric mean) it was > 9950 nM; in assay [5] (hGCGR EC50, nM (SEM, n), cAMP, 0.1% bovine casein and 1.0% human serum albumin, geometric mean (SEM, n)), > 9950 nM.

Regarding `CC[C@H](C)[C@H](NC(=O)[C@H](CC(C)C)NC(=O)[C@](C)(Cc1ccc(O)cc1)NC(=O)[C@H](CCCCNC(=O)COCCOCCNC(=O)CC[C@H](NC(=O)COCCOCCNC(=O)CC[C@H](NC(=O)CCCCCCCCCCCCC(=O)O)C(=O)O)C(=O)O)NC(=O)[C@@H](NC(=O)[C@H](Cc1ccccc1)NC(=O)[C@H](CCCN)NC(=O)C(C)(C)NC(=O)[C@H](CCC(N)=O)NC(=O)[C@H](C)NC(=O)[C@H](CCC(N)=O)NC(=O)[C@H](CCCN)NC(=O)[C@H](CC(=O)O)NC(=O)[C@H](CC(C)C)NC(=O)[C@](C)(CC(C)C)NC(=O)[C@@H](NC(=O)C(C)(C)NC(=O)[C@H](Cc1ccncc1)NC(=O)[C@H](CC(=O)O)NC(=O)[C@H](CO)NC(=O)[C@@H](NC(=O)[C@](C)(Cc1ccccc1F)NC(=O)[C@@H](NC(=O)CNC(=O)[C@H](CCC(=O)O)NC(=O)C(C)(C)NC(=O)[C@@H](N)Cc1ccc(O)cc1)[C@@H](C)O)[C@@H](C)O)[C@@H](C)CC)[C@@H](C)CC)C(=O)N[C@@H](CCCCNC(=O)COCCOCCNC(=O)CC[C@H](NC(=O)COCCOCCNC(=O)CC[C@H](NC(=O)CCCCCCCCCCCCC(=O)O)C(=O)O)C(=O)O)C(=O)NCC(=O)NCC(=O)N1CCC[C@H]1C(=O)N[C@@H](CO)C(=O)N[C@@H](CO)C(=O)NCC(=O)N[C@@H](C)C(=O)N1CCC[C@H]1C(=O)N1CCC[C@H]1C(=O)N1CCC[C@H]1C(=O)N[C@@H](CO)C(N)=O` [Example 484], the Ki in assay [1] is 0.268 nM; in assay [4] it was 0.0296 nM. Further, the figures for the Emax in assay [2] (setting [6]) and in assay [3] (setting [8]) were 118% and 91.3%, respectively. The EC50 in assay [2] (setting [7]) is 0.17 nM; in assay [3] (setting [9]) it was 0.0136 nM; in assay [3] (37° C., 0.1% bovine casein and 1.0% human serum albumin, geometric mean (SEM, n), read-out: hGIPR EC50, nM (SEM, n)), 0.453 nM; in assay [5] (setting [10]), > 9950 nM; in assay [5] (setting [11]), > 9950 nM.
